The assay addresses human recombinant H-PGDS (Homo sapiens, UniProt O60760). Description: Fluorescence Intensity h-PGDS TBA Enzyme Assay. It counts as biochemical. Conditions: 1:175,000 human recombinant H-PGDS, highest inhibitor concentration typically 1 μM. In outline:
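Readout is PGH2 depletion: after a 42 s reaction with 5.0 μM PGH2 and 2.5 mM glutathione (pH 8.0 Tris, 10 min inhibitor preincubation), Fe(II) converts leftover PGH2 to MDA, which forms a fluorescent TBA complex. IC50s come from 11-point, 3-fold duplicate curves, 4-parameter fit.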

43 molecules from US20110306597A1, “Nicotinamide Derivatives” (priority 2008, published 2011) can be followed below.

For orientation: IC50 means the concentration at which inhibition is half-maximal.

Molecules are shown by their SMILES.

human recombinant H-PGDS, sequence (O60760 whole entry): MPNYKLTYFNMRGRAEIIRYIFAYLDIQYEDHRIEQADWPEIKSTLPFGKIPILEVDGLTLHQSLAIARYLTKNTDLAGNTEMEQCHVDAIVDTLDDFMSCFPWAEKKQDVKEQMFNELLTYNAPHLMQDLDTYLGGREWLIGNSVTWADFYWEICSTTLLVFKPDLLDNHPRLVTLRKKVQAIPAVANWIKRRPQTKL

As to `O=C(NCC1CC2(CCN(c3cnccn3)CC2)CO1)c1ccc(-c2cccc(F)c2)nc1` (stereo not shown) [Example 54, 6-(3-Fluorophenyl)-N-[(8-pyrazin-2-yl-2-oxa-8-azaspiro[4.5]dec-3-yl)methyl]nicotinamide], the IC50 turned out to be 13.5 nM.
With `O=C(NCCN1CCN(Cc2ccccc2)CC1)c1ccc(-c2ccccc2)nc1` [Example 382, N-[2-(4-Benzylpiperazin-1-yl)ethyl]-6-phenylnicotinamide], the IC50 amounted to 9.1 nM.
As for `CNS(=O)(=O)c1ccc(CNC(=O)c2ccc(-c3cc(F)cc(F)c3)nc2)cc1` [Example 571, 6-(3,5-Difluorophenyl)-N-{4-[(methylamino)sulfonyl]benzyl}nicotinamide], the IC50 was 62.1 nM.
For the molecule `CCn1c(CCNC(=O)c2ccc(-c3ccccc3)nc2)nc2cc(C(=O)NCCOC)ccc21` [Example 391, 1-Ethyl-N-(2-methoxyethyl)-2-(2-{[(6-phenylpyridin-3-yl)carbonyl]amino}ethyl)-1H-benzimidazole-5-carboxamide], the concentration for half-maximal inhibition (IC50) was 0.906 nM.
`O=C(N[C@@H]1C[C@H]2CC[C@@H](C1)N2C(=O)NCCO)c1ccc(-c2cccc(F)c2)nc1` [Example 597, (3-exo)-3-({[6-(3-Fluorophenyl)-pyridin-3-yl]carbonyl}amino)-N-(2-hydroxyethyl)-8-azabicyclo[3.2.1]octane-8-carboxamide]: the 50% inhibitory concentration (IC50) worked out at 35 nM.
Consider `CN1CCC(O)(CNC(=O)c2ccc(-c3cccc(F)c3)nc2)CC1` [Example 121, 6-(3-Fluorophenyl)-N-[(4-hydroxy-1-methylpiperidin-4-yl)methyl]nicotinamide], for which the IC50 worked out at 129 nM.
Consider `Cc1cccc(-c2ccc(C(=O)NCC(=O)N(C)C)cn2)c1` [Example 244, N-[2-(Dimethylamino)-2-oxoethyl]-6-(3-methylphenyl)nicotinamide], for which the 50% inhibitory concentration (IC50) came to 230 nM.
For the molecule `COc1cccc(-c2ccc(C(=O)NCCCN3CCCC3=O)cn2)c1` [Example 290, 6-(3-Methoxyphenyl)-N-[3-(2-oxopyrrolidin-1-yl)propyl]nicotinamide], the IC50 is 627 nM.
With `O=C(NC1CCCCNC1=O)c1ccc(-c2cccc(F)c2)nc1` (stereo not shown) [Example 136, 6-(3-Fluorophenyl)-N-(2-oxoazepan-3-yl)nicotinamide], the IC50 came to 3.51 nM.
Turning to `Cc1ccc(CNC(=O)c2ccc(-c3cccc(C)c3)nc2)cc1` [Example 251, N-(4-Methylbenzyl)-6-(3-methylphenyl)nicotinamide], the IC50 came out at 105 nM.
For the molecule `CC(C)CNC(=O)c1ccc(-c2ccc(F)cc2)nc1` [Example 463, 6-(4-Fluorophenyl)-N-isobutylnicotinamide], the IC50 was 653 nM.
With `Cc1cccc(-c2ccc(C(=O)NCc3ccc(Br)cc3)cn2)c1` [Example 489, N-(4-Bromobenzyl)-6-(3-methylphenyl)nicotinamide], the concentration for half-maximal inhibition (IC50) was determined as 214 nM.
Regarding `CN(C)CCOc1ccc(CNC(=O)c2cnc(-c3cccc(F)c3)c(Cl)c2)cc1` [Example 561, 5-Chloro-N-{4-[2-(dimethylamino)ethoxy]benzyl}-6-(3-fluorophenyl)nicotinamide], the IC50 came out at 19.8 nM.
`COC(=O)CCNC(=O)c1ccc(-c2cccc(F)c2)nc1` [Example 187, Methyl N-{[6-(3-fluorophenyl)pyridin-3-yl]carbonyl}-beta-alaninate]: the IC50 amounted to 14.5 nM.
In the case of `O=C(NCc1nc(-c2ccccc2)no1)c1ccc(-c2cccc(F)c2)nc1` [Example 133, 6-(3-Fluorophenyl)-N-[(3-phenyl-1,2,4-oxadiazol-5-yl)methyl]nicotinamide] it was 59.2 nM; in that of `COc1ccc2nc(CCNC(=O)c3ccc(-c4cccc(F)c4)nc3)[nH]c2c1` [Example 208, 6-(3-Fluorophenyl)-N-[2-(6-methoxy-1H-benzimidazol-2-yl)ethyl]nicotinamide], 18.3 nM.
In the case of `CC(C)c1noc(CNC(=O)c2ccc(-c3cccc(F)c3)nc2)n1` [Example 83, 6-(3-Fluorophenyl)-N-[(3-isopropyl-1,2,4-oxadiazol-5-yl)methyl]nicotinamide], the IC50 came out at 72.8 nM.
In the case of `COc1cccc(-c2ccc(C(=O)NCC(C)(C)CN(C)C)cn2)c1` [Example 342, N-[3-(Dimethylamino)-2,2-dimethylpropyl]-6-(3-methoxyphenyl)nicotinamide], the IC50 is not below 1000 nM.
As for `Cc1cc(C(F)(F)F)nc(CNC(=O)c2ccc(-c3cccc(F)c3)nc2)n1` [Example 98, 6-(3-Fluorophenyl)-N-{[4-methyl-6-(trifluoromethyl)pyrimidin-2-yl]methyl}nicotinamide], the 50% inhibitory concentration (IC50) turned out to be 146 nM.
Turning to `O=C(NCC1C(=O)Nc2ccc(F)cc21)c1ccc(-c2cccc(F)c2)nc1` (stereo not shown) [Example 534, N-[(5-Fluoro-2-oxo-2,3-dihydro-1H-indol-3-yl)methyl]-6-(3-fluorophenyl)nicotinamide], the IC50 was determined as 1.04 nM.
As to `Cc1nc(CNC(=O)c2ccc(-c3cccc(F)c3)nc2)cs1` [Example 69, 6-(3-Fluorophenyl)-N-[(2-methyl-1,3-thiazol-4-yl)methyl]nicotinamide], the concentration for half-maximal inhibition (IC50) stood at 23.9 nM.
Take `O=C(NC1COC2(CCN(c3nc4ccccc4[nH]3)CC2)C1)c1ccc(-c2cccc(F)c2)nc1` (stereo not shown) [Example 150, N-[8-(1H-Benzimidazol-2-yl)-1-oxa-8-azaspiro[4.5]dec-3-yl]-6-(3-fluorophenyl)nicotinamide]: the 50% inhibitory concentration (IC50) was 2.88 nM.
Next, `O=C(Nc1cccnc1)c1ccc(-c2ccccc2)nc1` [Example 354, 6-Phenyl-N-pyridin-3-ylnicotinamide]: 1.66 nM; `O=C(NCCN1CCOC1=O)c1ccc(-c2ccccc2)nc1` [Example 359, N-[2-(2-Oxo-1,3-oxazolidin-3-yl)ethyl]-6-phenylnicotinamide]: 37.1 nM.
For `Cc1cccc2c1OCCC2NC(=O)c1ccc(-c2cccc(F)c2)nc1` (stereo not shown) [Example 532, 6-(3-Fluorophenyl)-N-(8-methyl-3,4-dihydro-2H-chromen-4-yl)nicotinamide], the half-inhibitory concentration (IC50) was 3.94 nM.
Next, `O=C(NCCc1nccs1)c1ccc(-c2cccc(F)c2)nc1` [Example 93, 6-(3-Fluorophenyl)-N-[2-(1,3-thiazol-2-yl)ethyl]nicotinamide]: 12.5 nM; `Cc1cccnc1CC(C)NC(=O)c1ccc(-c2cccc(F)c2)nc1` (stereo not shown) [Example 3, 6-(3-Fluorophenyl)-N-[1-methyl-2-(3-methylpyridin-2-yl)ethyl]nicotinamide]: 2.89 nM.
As to `O=C(NCCN1CCN(Cc2ccccc2)CC1)c1ccc(-c2ccc(F)cc2)nc1` [Example 476, N-[2-(4-Benzylpiperazin-1-yl)ethyl]-6-(4-fluorophenyl)nicotinamide], the IC50 is not below 1000 nM.
Next, `COC(=O)c1ccc(CNC(=O)c2ccc(-c3cccc(F)c3)nc2)cc1` [Example 416, Methyl 4-[({[6-(3-fluorophenyl)pyridin-3-yl]carbonyl}amino)methyl] benzoate]: 44.8 nM; `CN1CCC(CCNC(=O)c2ccc(-c3cccc(F)c3)nc2)CC1` [Example 175, 6-(3-Fluorophenyl)-N-[2-(1-methylpiperidin-4-yl)ethyl]nicotinamide]: 47.1 nM; `O=C(NC1C(=O)NCCc2ccccc21)c1ccc(-c2cccc(F)c2)nc1` (stereo not shown) [Example 120, 6-(3-Fluorophenyl)-N-(2-oxo-2,3,4,5-tetrahydro-1H-3-benzazepin-1-yl)nicotinamide]: 67.3 nM.
Regarding `O=C(NC(c1cccc(Cl)c1)c1nn[nH]n1)c1ccc(-c2cccc(F)c2)nc1` (stereo not shown) [Example 123, N-[(3-Chlorophenyl)(2H-tetrazol-5-yl)methyl]-6-(3-fluorophenyl)nicotinamide], the IC50 came out at 15.6 nM.
In the case of `COc1cccc(-c2ccc(C(=O)NCc3cccc(S(C)(=O)=O)c3)cn2)c1` [Example 292, 6-(3-Methoxyphenyl)-N-[3-(methylsulfonyl)benzyl] nicotinamide], the IC50 was 215 nM.
For the molecule `COc1cccc(-c2ccc(C(=O)NCCN(C)C)cn2)c1` [Example 285, N-[2-(Dimethylamino)ethyl]-6-(3-methoxyphenyl) nicotinamide], the IC50 was not below 1000 nM.
Regarding `C[C@@H](CNC(=O)c1ccc(-c2cccc(F)c2)nc1)NC(=O)OCc1ccccc1` [Example 433, Benzyl [(1S)-2-({[6-(3-fluorophenyl)pyridin-3-yl]carbonyl}amino)-1-methylethyl]carbamate], the IC50 is 33.7 nM.
Next, `COc1cccn(CCNC(=O)c2ccc(-c3cccc(F)c3)nc2)c1=O` [Example 48, 6-(3-Fluorophenyl)-N-[2-(3-methoxy-2-oxopyridin-1(2H)-yl)ethyl]nicotinamide]: 10.7 nM; `Cc1cc(=O)[nH]c(N2CCCC(CNC(=O)c3ccc(-c4cccc(F)c4)nc3)C2)n1` (stereo not shown) [Example 112, 6-(3-Fluorophenyl)-N-{[1-(4-methyl-6-oxo-1,6-dihydropyrimidin-2-yl)piperidin-3-yl]methyl}nicotinamide]: 29.2 nM; `O=C(NCCCN1CCOCC1)c1ccc(-c2cccc(F)c2)nc1` [Example 39, 6-(3-Fluorophenyl)-N-(3-morpholin-4-ylpropyl)nicotinamide]: 42.8 nM.
As to `O=C(NCCN1CCCCC1=O)c1ccc(-c2ccccc2)nc1` [Example 373, N-[2-(2-Oxopiperidin-1-yl)ethyl]-6-phenylnicotinamide], the IC50 is 39.7 nM.
For the molecule `O=C(Nc1ccccc1)c1ccc(-c2cccc(F)c2)nc1` [Example 421, 6-(3-Fluorophenyl)-N-phenylnicotinamide], the IC50 is 7.37 nM.
Next, `O=C(NCCN1CCCCC1)c1ccc(-c2ccccc2)nc1` [Example 361, 6-Phenyl-N-(2-piperidin-1-ylethyl)nicotinamide]: 11.8 nM.
Next, `COc1ccc(OCCNC(=O)c2ccc(-c3cccc(F)c3)nc2)cc1` [Example 434, 6-(3-Fluorophenyl)-N-[2-(4-methoxyphenoxy)ethyl] nicotinamide]: 101 nM; `Cc1ccccc1CNC(=O)c1ccc(-c2ccc(F)cc2)nc1` [Example 491, 6-(4-Fluorophenyl)-N-(2-methylbenzyl)nicotinamide]: 139 nM.
